From ChEMBL document CHEMBL5052834, “CXCL10 Inhibitors” (2021)
Active and inactive are the calls of the source. The rule behind the calls is not given here.

Columns and labels:
Keratinocyte [1] = test: Inhibition of CXCL10 gene expression in IFN-gamma-stimulated human keratinocytes; format: functional, cell-based
Keratinocyte [2] = test: Inhibition of CXCL10 protein secretion in LPS-stimulated human keratinocytes measured by ELISA assay; format: functional, cell-based
Keratinocyte [3] = test: Inhibition of CXCL10 protein secretion in IFN-gamma-stimulated human keratinocytes measured by ELISA assay; format: functional, cell-based
Keratinocyte [4] = test: Inhibition of CXCL10 protein secretion in poly (I:C)-stimulated human keratinocytes measured by ELISA assay; format: functional, cell-based
Keratinocyte [5] = test: Inhibition of CXCL10 gene expression in TNF-alpha-stimulated human keratinocytes; format: functional, cell-based
Keratinocyte [6] = test: Inhibition of CXCL10 protein secretion in TNF-alpha-stimulated human keratinocytes measured by ELISA assay; format: functional, cell-based
Keratinocyte [7] = test: Inhibition of CXCL10 gene expression in LPS-stimulated human keratinocytes; format: functional, cell-based
Keratinocyte [8] = test: Inhibition of CXCL10 gene expression in poly (I:C)-stimulated human keratinocytes; format: functional, cell-based
Rattus norvegicus [9] = species on record: Rattus norvegicus; test: Inhibition of CXCL10 gene expression in streptozotocin (STZ)-induced diabetes induced retinopathy model of rat assessed as decrease in amount of CXCL10 in retina measured by ELISA assay; format: functional
Rattus norvegicus [10] = species on record: Rattus norvegicus; test: Antiangiogenic activity in streptozotocin (STZ)-induced diabetes induced retinopathy model of rat assessed as decrease in retinal vascular permeability measured by Evans blue dye metho; format: functional, organism-based
Mus musculus = test: In vivo inhibition of CXCL10 gene expression in experimental autoimmune uveitis (EAU) model of C57BL/6 mouse; format: functional, organism-based

COc1ccc2[nH]c([S@+]([O-])Cc3ncc(C)c(OC)c3C)nc2c1 was tested. Which inhibition (Keratinocyte [1]) did it give?
The inhibition was “Active”.

For Cc1c(OCC(F)(F)F)ccnc1CC(C)(O)c1nc2cc(OC(F)F)ccc2[nH]1 (stereo not drawn), which inhibition (Keratinocyte [2]) is on record?
Its inhibition is “Active”.

For COc1ccc2[nH]c(S(=O)(=O)Cc3ncc(C)c(OC)c3C)nc2c1, which inhibition (Keratinocyte [2]) is on record?
The inhibition was “Active”.

For Cc1cnc(CC(O)c2nc3cc(OC(F)F)ccc3[nH]2)c(C)c1OCC(F)(F)F (stereo not drawn), which inhibition (Keratinocyte [3]) is on record?
The inhibition was “Active”.

Which inhibition (Keratinocyte [4]) does the source give for COc1c(C)cnc(CS(=O)(=O)c2nc3cc(-n4cccc4)ccc3[nH]2)c1C here?
Its inhibition is “Active”.

For COc1c(C)cnc(CC(O)c2nc3ccccc3[nH]2)c1C (stereo not drawn), which inhibition (Keratinocyte [5]) is on record?
The inhibition was “Active”.

Which inhibition (Keratinocyte [6]) does the source give for COc1c(C)cnc(C[S@@](=O)c2nc3ccccc3[nH]2)c1C here?
Its inhibition is “Active”.

COc1c(C)cnc(CS(=O)(=O)c2nc3cc(OC(F)F)ccc3[nH]2)c1C was tested. Which inhibition (Keratinocyte [7]) did it give?
Its inhibition is “Active”.

What does the source list for Cc1c(OCC(F)(F)F)ccnc1CS(=O)(=O)c1nc2cc(OC(F)F)ccc2[nH]1?
inhibition (Keratinocyte [7]): Active; inhibition (Keratinocyte [1]): Active

Which inhibition (Keratinocyte [8]) does the source give for COc1ccnc(CC(O)c2nc3ccccc3[nH]2)c1C (stereo not drawn) here?
Its inhibition is “Active”.

What about the inhibition (Keratinocyte [4]) of the same molecule?
The inhibition was “Active”.

With COCCCOc1ccnc(CC(=O)c2nc3cc(OC(F)(F)F)ccc3[nH]2)c1C as the molecule, how does the inhibition (Keratinocyte [8]) read?
Its inhibition is “Active”.

COc1ccnc(CS(=O)(=O)c2nc3cc(OC(F)F)ccc3[nH]2)c1OC was tested. Which inhibition (Keratinocyte [3]) did it give?
Its inhibition is “Active”.

With COc1ccnc(C[S+]([O-])c2nc3cc(OC(F)F)ccc3[nH]2)c1OC (stereo not drawn) as the molecule, how does the inhibition (Keratinocyte [8]) read?
Its inhibition is “Active”.

And the inhibition (Keratinocyte [7])?
The inhibition was “Active”.

What about the inhibition (Keratinocyte [3]) of the same molecule?
The inhibition was “Active”.

And the inhibition (Keratinocyte [5])?
The inhibition was “Active”.

And the inhibition (Rattus norvegicus [9])?
Its inhibition is “Active”.

What about the Activity (Rattus norvegicus [10]) of the same molecule?
Its Activity is “Active”.

With COc1ccc2[nH]c(C(=O)Cc3ncc(C)c(OC)c3C)nc2c1 as the molecule, how does the inhibition (Keratinocyte [8]) read?
The inhibition was “Active”.

How did the inhibition (Keratinocyte [3]) turn out when COCCCOc1ccnc(CS(=O)(=O)c2nc3ccccc3[nH]2)c1C was run?
The inhibition was “Active”.

With COc1ccc2[nH]c(S(=O)(=O)Cc3nccc(OC)c3C)nc2c1 as the molecule, how does the inhibition (Keratinocyte [1]) read?
The inhibition was “Active”.

Which inhibition (Keratinocyte [8]) does the source give for COc1ccnc(CS(=O)(=O)c2nc3ccccc3[nH]2)c1OC here?
The inhibition was “Active”.

How did the inhibition (Keratinocyte [7]) turn out when Cc1c(OCC(F)(F)F)ccnc1C[S+]([O-])c1nc2ccccc2[nH]1 (stereo not drawn) was run?
The inhibition was “Active”.

And the inhibition (Keratinocyte [2])?
The inhibition was “Active”.

And the inhibition (Keratinocyte [1])?
Its inhibition is “Active”.

And the inhibition (Keratinocyte [5])?
Its inhibition is “Active”.

For COc1c(C)cnc(C[S@+]([O-])c2nc3cc(OC(F)F)ccc3[nH]2)c1C, which inhibition (Keratinocyte [7]) is on record?
The inhibition was “Active”.

With Cc1cnc(CC(=O)c2nc3ccccc3[nH]2)c(C)c1OCC(F)(F)F as the molecule, how does the inhibition (Keratinocyte [4]) read?
The inhibition was “Active”.

With COc1ccnc(CC(C)(O)c2nc3cc(-n4cccc4)ccc3[nH]2)c1OC (stereo not drawn) as the molecule, how does the inhibition (Keratinocyte [3]) read?
Its inhibition is “Active”.

With COc1c(C)cnc(CC(O)c2nc3cc(-n4cccc4)ccc3[nH]2)c1C (stereo not drawn) as the molecule, how does the inhibition (Keratinocyte [1]) read?
The inhibition was “Active”.

COc1ccnc(CC(C)(O)c2nc3cc(OC(F)(F)F)ccc3[nH]2)c1OC (stereo not drawn) was tested. Which inhibition (Keratinocyte [6]) did it give?
Its inhibition is “Active”.

COc1ccnc(CC(O)c2nc3cc(OC(F)(F)F)ccc3[nH]2)c1C (stereo not drawn) was tested. Which inhibition (Keratinocyte [5]) did it give?
Its inhibition is “Active”.

With COc1c(C)cnc(C[S@@+]([O-])c2nc3cc(OC(F)F)ccc3[nH]2)c1C as the molecule, how does the inhibition (Keratinocyte [2]) read?
Its inhibition is “Active”.

Which results are given for COCCCOc1ccnc(C[S+]([O-])c2nc3ccccc3[nH]2)c1C (stereo not drawn)?
inhibition (Keratinocyte [4]): Active; inhibition (Keratinocyte [7]): Active; inhibition (Keratinocyte [6]): Active

Which inhibition (Keratinocyte [5]) does the source give for Cc1c(OCC(F)(F)F)ccnc1CS(=O)(=O)c1nc2cc(-n3cccc3)ccc2[nH]1 here?
The inhibition was “Active”.

For COc1ccnc(CC(O)c2nc3cc(OC(F)(F)F)ccc3[nH]2)c1OC (stereo not drawn), which inhibition (Keratinocyte [6]) is on record?
Its inhibition is “Active”.

Which results are given for COc1ccnc(C[S+]([O-])c2nc3cc(-n4cccc4)ccc3[nH]2)c1C (stereo not drawn)?
inhibition (Keratinocyte [4]): Active; inhibition (Keratinocyte [6]): Active

For COc1ccc2[nH]c([S+]([O-])Cc3ncc(C)c(OC)c3C)nc2c1 (stereo not drawn), which inhibition (Keratinocyte [8]) is on record?
The inhibition was “Active”.

What about the inhibition (Keratinocyte [4]) of the same molecule?
The inhibition was “Active”.

What about the inhibition (Keratinocyte [2]) of the same molecule?
The inhibition was “Active”.

What about the inhibition (Keratinocyte [3]) of the same molecule?
The inhibition was “Active”.

What about the inhibition (Keratinocyte [5]) of the same molecule?
Its inhibition is “Active”.

And the inhibition (Rattus norvegicus [9])?
The inhibition was “Active”.

What about the Activity (Rattus norvegicus [10]) of the same molecule?
The Activity was “Active”.

And the inhibition (Mus musculus)?
Its inhibition is “Active”.

For COCCCOc1ccnc(C[S@+]([O-])c2nc3cc(OC(F)(F)F)ccc3[nH]2)c1C, which inhibition (Keratinocyte [2]) is on record?
Its inhibition is “Active”.

COc1ccc2[nH]c([S@@+]([O-])Cc3nccc(OC)c3C)nc2c1 was tested. Which inhibition (Keratinocyte [1]) did it give?
The inhibition was “Active”.

And the inhibition (Keratinocyte [6])?
The inhibition was “Active”.
